Reference: ChEMBL document CHEMBL4725370, “Discovery of Proteolysis-Targeting Chimera Molecules that Selectively Degrade the IRAK3 Pseudokinase” (J Med Chem, 2020)

Columns and labels:
[1] = molecular target: T1, von Hippel-Lindau disease tumor suppressor/Interleukin-1 receptor-associated kinase 3 (Homo sapiens) (UniProt Q9Y616+P40337); assay: Protac activity at VHL/IRAK3 in LPS-induced human THP1 cells assessed as induction of IRAK3 degradation at 1 uM by Western blot analysis relative to control; assay type: cell-based; conditions: THP-1
[2] = molecular target: T1, von Hippel-Lindau disease tumor suppressor/Interleukin-1 receptor-associated kinase 3 (Homo sapiens); assay: Protac activity at VHL/IRAK3 in LPS-induced human THP1 cells assessed as induction of IRAK3 degradation at 10 uM by Western blot analysis relative to control; assay type: cell-based; conditions: THP-1
[3] = molecular target: T2, Interleukin-1 receptor-associated kinase 4 (Homo sapiens, UniProt Q9NWZ3); assay: Inhibition of recombinant human full-length His-tagged IRAK4 expressed in baculovirus expression system using 5-FAM-IPTSPITTTYFFFKKK-COOH as substrate measured after 240 mins by mobility shift assay
T2 sequence (Q9NWZ3 whole entry): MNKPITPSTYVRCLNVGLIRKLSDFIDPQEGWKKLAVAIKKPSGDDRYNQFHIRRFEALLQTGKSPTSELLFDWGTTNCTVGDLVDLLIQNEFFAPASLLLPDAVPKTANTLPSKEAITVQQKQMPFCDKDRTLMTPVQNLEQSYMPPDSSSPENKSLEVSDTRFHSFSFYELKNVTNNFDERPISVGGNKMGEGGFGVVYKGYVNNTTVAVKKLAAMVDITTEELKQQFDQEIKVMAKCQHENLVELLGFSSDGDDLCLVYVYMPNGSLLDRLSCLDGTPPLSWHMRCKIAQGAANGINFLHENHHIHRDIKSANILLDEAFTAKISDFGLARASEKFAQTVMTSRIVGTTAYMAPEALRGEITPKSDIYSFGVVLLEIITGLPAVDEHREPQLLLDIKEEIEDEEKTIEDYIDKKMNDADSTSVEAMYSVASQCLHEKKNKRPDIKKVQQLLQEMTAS

[4] = Octanol/buffer partition coefficient, log D of the compound at pH 7.4 by shake-flask method; assay type: physicochemical
[5] = molecular target: T3, Interleukin-1 receptor-associated kinase 3 (Homo sapiens, UniProt Q9Y616); assay: Inhibition of kinase tracer 236 binding to recombinant human full-length GST-tagged IRAK3 expressed in insect cells by Lanthascreen Eu kinase binding assay
T3 sequence (Q9Y616 whole entry): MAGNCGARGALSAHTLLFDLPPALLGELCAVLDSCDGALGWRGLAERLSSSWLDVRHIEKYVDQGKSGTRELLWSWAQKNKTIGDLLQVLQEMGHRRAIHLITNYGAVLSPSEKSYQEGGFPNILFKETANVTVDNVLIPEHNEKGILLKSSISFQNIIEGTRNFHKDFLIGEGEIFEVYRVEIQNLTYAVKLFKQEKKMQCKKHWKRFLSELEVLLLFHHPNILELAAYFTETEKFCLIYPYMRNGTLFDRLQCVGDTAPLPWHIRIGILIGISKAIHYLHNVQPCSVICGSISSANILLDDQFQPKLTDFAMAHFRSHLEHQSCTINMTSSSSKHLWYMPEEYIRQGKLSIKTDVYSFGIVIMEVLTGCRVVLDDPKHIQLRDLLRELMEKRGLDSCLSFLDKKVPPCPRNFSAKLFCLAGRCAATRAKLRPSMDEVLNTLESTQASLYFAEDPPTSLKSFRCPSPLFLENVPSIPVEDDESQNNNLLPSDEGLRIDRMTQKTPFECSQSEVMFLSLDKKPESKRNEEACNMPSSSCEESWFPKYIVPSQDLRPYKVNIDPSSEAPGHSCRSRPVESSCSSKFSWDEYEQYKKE

[6] = molecular target: T4, Protein cereblon/Interleukin-1 receptor-associated kinase 3 (Homo sapiens, UniProt Q9Y616+Q96SW2); assay: Protac activity at CRBN/IRAK3 in LPS-induced human THP1 cells assessed as induction of IRAK3 degradation at 10 uM by Western blot analysis relative to control; assay type: cell-based; conditions: THP-1
Target sequence in this assay (Q96SW2 whole entry, looked up, one chain of several): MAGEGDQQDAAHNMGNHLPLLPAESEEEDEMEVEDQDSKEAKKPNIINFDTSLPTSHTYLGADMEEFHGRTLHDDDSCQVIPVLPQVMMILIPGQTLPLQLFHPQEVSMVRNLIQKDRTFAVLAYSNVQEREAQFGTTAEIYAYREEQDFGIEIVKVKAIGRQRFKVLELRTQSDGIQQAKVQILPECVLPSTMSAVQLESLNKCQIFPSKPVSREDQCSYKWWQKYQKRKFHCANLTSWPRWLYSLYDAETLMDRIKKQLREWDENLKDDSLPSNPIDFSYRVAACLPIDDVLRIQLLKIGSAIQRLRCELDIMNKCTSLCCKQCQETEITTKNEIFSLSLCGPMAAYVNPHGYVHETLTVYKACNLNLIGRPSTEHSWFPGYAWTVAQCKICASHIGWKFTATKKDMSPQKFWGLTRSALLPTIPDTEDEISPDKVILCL

[7] = molecular target: T4, Protein cereblon/Interleukin-1 receptor-associated kinase 3; assay: Protac activity at CRBN/IRAK3 in LPS-induced human THP1 cells assessed as induction of IRAK3 degradation at 1 uM by Western blot analysis relative to control; assay type: cell-based; conditions: THP-1
Target sequence in this assay (Q96SW2 whole entry, looked up, one chain of several): as above

[8] = molecular target: T4, Protein cereblon/Interleukin-1 receptor-associated kinase 3; assay: Protac activity at CRBN/IRAK3 in LPS-induced human THP1 cells assessed as induction of IRAK3 degradation after 16 hrs by Western blot analysis; assay type: cell-based; conditions: thp-1
Target sequence in this assay (Q96SW2 whole entry, one chain of several): as the sequence (Q96SW2 whole entry, looked up, one chain of several) above

[9] = molecular target: Interleukin-1 receptor-associated kinase 1 (Homo sapiens, UniProt P51617); assay: Inhibition of recombinant human N-terminal GST-tagged IRAK1 (194 to 712 residues) expressed in baculovirus expression system using 5-FAM-KKKVSRSGLYRSPSMPENLNRPR-COOH as substrate measured after 240 mins by mobility shift assay
Protein cereblon = Protein cereblon (Homo sapiens, UniProt Q96SW2); assay: Inhibition of CRBN (unknown origin)
[10] = molecular target: T4, Protein cereblon/Interleukin-1 receptor-associated kinase 3; assay: Protac activity at CRBN/IRAK3 in LPS-induced human THP1 cells assessed as induction of IRAK3 degradation after 16 hrs by Western blot analysis relative to control; assay type: cell-based; conditions: THP-1
Target sequence in this assay (Q96SW2 whole entry, looked up, one chain of several): as the sequence (Q96SW2 whole entry, looked up, one chain of several) above

T1 sequence (P40337 whole entry, looked up, one chain of several): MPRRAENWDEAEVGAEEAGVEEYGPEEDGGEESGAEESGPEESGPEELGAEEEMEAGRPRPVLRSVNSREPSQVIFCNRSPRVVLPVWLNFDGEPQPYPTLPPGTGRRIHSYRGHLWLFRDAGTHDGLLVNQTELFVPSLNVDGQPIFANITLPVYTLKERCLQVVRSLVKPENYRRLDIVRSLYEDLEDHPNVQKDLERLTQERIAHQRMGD
Chain of Protein cereblon (Q96SW2 whole entry): as the sequence (Q96SW2 whole entry, looked up, one chain of several) above
Chain of Interleukin-1 receptor-associated kinase 1 (P51617 whole entry, the tested form may be a part): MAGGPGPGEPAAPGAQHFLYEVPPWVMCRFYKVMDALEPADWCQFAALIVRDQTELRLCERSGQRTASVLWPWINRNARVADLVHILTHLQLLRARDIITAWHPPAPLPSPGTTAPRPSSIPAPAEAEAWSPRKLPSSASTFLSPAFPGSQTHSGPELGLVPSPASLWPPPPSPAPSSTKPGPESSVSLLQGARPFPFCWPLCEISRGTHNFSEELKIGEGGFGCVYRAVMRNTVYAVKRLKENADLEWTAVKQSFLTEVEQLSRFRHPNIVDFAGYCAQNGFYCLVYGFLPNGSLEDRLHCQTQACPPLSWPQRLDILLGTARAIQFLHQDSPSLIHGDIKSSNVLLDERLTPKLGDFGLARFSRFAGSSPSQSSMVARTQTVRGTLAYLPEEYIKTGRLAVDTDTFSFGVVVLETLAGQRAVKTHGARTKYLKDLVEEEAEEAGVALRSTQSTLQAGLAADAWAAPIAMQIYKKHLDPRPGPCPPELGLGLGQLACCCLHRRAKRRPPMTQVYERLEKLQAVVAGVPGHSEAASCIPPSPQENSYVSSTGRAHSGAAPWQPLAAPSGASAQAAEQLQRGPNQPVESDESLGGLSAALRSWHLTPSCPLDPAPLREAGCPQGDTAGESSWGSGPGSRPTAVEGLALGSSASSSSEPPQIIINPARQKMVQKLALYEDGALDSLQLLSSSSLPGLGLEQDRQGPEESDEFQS

| SMILES | Activity [1] [%] | Activity [2] [%] | IC50 [3] [nM] | logD [4] | IC50 [5] [nM] | Activity [6] [%] | Activity [7] [%] | DC50 [8] [nM] | IC50 [9] [nM] | IC50 (Protein cereblon) [nM] | Emax [10] [%] |
| --- | --- | --- | --- | --- | --- | --- | --- | --- | --- | --- | --- |
| Cc1ncsc1-c1ccc(CNC(=O)[C@@H]2C[C@@H](O)CN2C(=O)[C@@H](NC(=O)COCCOCCOCCOCCOCCOCC(=O)N2CCN([C@H]3CC[C@@H](Nc4ncnn5ccc(C(C)C)c45)CC3)CC2)C(C)(C)C)cc1 | 20 | 43 | > 10000 | 2.8 | 33 |  |  |  |  |  |  |
| CC(C)c1ccn2ncnc(N[C@H]3CC[C@@H](N4CCN(C(=O)CCOCCOCCOCCNc5cccc6c5C(=O)N(C5CCC(=O)NC5=O)C6=O)CC4)CC3)c12 (stereo partly specified) |  |  | 7800 | 2.3 | 34 | 21 | 24 |  |  |  |  |
| Cc1ncsc1-c1ccc(CNC(=O)[C@@H]2C[C@@H](O)CN2C(=O)[C@@H](NC(=O)COCCOCCOCCOCCOCC(=O)N2CCN([C@H]3CC[C@@H](Nc4ncnn5ccc(C(C)C)c45)CC3)CC2)C(C)(C)C)cc1 | 21 | 67 |  |  | 51 |  |  |  |  |  |  |
| CC(C)c1ccn2ncnc(N[C@H]3CC[C@@H](N4CCN(C(=O)CCC(=O)NCCCCNc5cccc6c5C(=O)N(C5CCC(=O)NC5=O)C6=O)CC4)CC3)c12 (stereo partly specified) |  |  | > 1000 | 2.9 | 13 | 0 | 0 |  |  |  |  |
| CC(C)c1ccn2ncnc(N[C@H]3CC[C@@H](N4CCN(C(=O)CCOCCOCCOCCOCCNc5cccc6c5C(=O)N(C5CCC(=O)NC5=O)C6=O)CC4)CC3)c12 (stereo partly specified) |  |  | > 10000 | 2.2 | 50 | 27 | 48 |  |  |  |  |
| CC(C)c1ccn2ncnc(N[C@H]3CC[C@@H](N4CCN(C(=O)CCOCCOCCOCCOCCOCCNc5cccc6c5C(=O)N(C5CCC(=O)NC5=O)C6=O)CC4)CC3)c12 (stereo partly specified) |  |  | > 10000 | 2.1 | 33 | 49 | 78 |  |  |  |  |
| CC(C)c1ccn2ncnc(N[C@H]3CC[C@@H](N4CCN(C(=O)CCC(=O)NCCCCCCNc5cccc6c5C(=O)N(C5CCC(=O)NC5=O)C6=O)CC4)CC3)c12 (stereo partly specified) |  |  | 2600 | 3.7 | 21 | 0 | 0 |  |  |  |  |
| CC(C)c1ccn2ncnc(N[C@H]3CC[C@@H](N4CCN(C(=O)CCC(=O)NCCOCCOCCNc5cccc6c5C(=O)N(C5CCC(=O)NC5=O)C6=O)CC4)CC3)c12 (stereo partly specified) |  |  | 4900 | 2.3 | 10 | 13 | 17 |  |  |  |  |
| Cc1ncsc1-c1ccc(CNC(=O)[C@@H]2C[C@@H](O)CN2C(=O)[C@@H](NC(=O)CCCCCCNC(=O)CCC(=O)N2CCN([C@H]3CC[C@@H](Nc4ncnn5ccc(C(C)C)c45)CC3)CC2)C(C)(C)C)cc1 | 0 | 0 | > 1000 | > 3 | 6 |  |  |  |  |  |  |
| Cc1ncsc1-c1ccc(CNC(=O)[C@@H]2C[C@@H](O)CN2C(=O)[C@@H](NC(=O)CCCNC(=O)CCC(=O)N2CCN([C@H]3CC[C@@H](Nc4ncnn5ccc(C(C)C)c45)CC3)CC2)C(C)(C)C)cc1 | 0 | 0 | > 1000 | 3.7 | 15 |  |  |  |  |  |  |
| CC(C)c1ccn2ncnc(N[C@H]3CC[C@@H](N4CCN(C(=O)CCC(=O)NCCOCCOCCOCCNc5cccc6c5C(=O)N(C5CCC(=O)NC5=O)C6=O)CC4)CC3)c12 (stereo partly specified) |  |  | > 1000 | 2.1 | 21 | 34 | 42 |  |  |  |  |

Next, values leading:

| Activity [1] [%] | Activity [2] [%] | IC50 [3] [nM] | logD [4] | IC50 [5] [nM] | Activity [6] [%] | Activity [7] [%] | DC50 [8] [nM] | IC50 [9] [nM] | IC50 (Protein cereblon) [nM] | Emax [10] [%] | SMILES |
| --- | --- | --- | --- | --- | --- | --- | --- | --- | --- | --- | --- |
| 0 | 20 | > 10000 | 3.3 | 24 |  |  |  |  |  |  | Cc1ncsc1-c1ccc(CNC(=O)[C@@H]2C[C@@H](O)CN2C(=O)[C@@H](NC(=O)COCCOCCNC(=O)CCC(=O)N2CCN([C@H]3CC[C@@H](Nc4ncnn5ccc(C(C)C)c45)CC3)CC2)C(C)(C)C)cc1 |
| 25 | 62 | > 10000 | 3.2 | 21 |  |  |  |  |  |  | Cc1ncsc1-c1ccc(CNC(=O)[C@@H]2C[C@@H](O)CN2C(=O)[C@@H](NC(=O)COCCOCCOCCOCC(=O)N2CCN([C@H]3CC[C@@H](Nc4ncnn5ccc(C(C)C)c45)CC3)CC2)C(C)(C)C)cc1 |
| 0 | 0 | > 1000 | 3.1 | 25 |  |  |  |  |  |  | Cc1ncsc1-c1ccc(CNC(=O)[C@@H]2C[C@@H](O)CN2C(=O)[C@@H](NC(=O)COCCOCCOCCNC(=O)CCC(=O)N2CCN([C@H]3CC[C@@H](Nc4ncnn5ccc(C(C)C)c45)CC3)CC2)C(C)(C)C)cc1 |
|  |  | 5600 | 3.1 | 6 |  |  | 52 | 5600 | 1200 | 74 | CC(C)c1ccn2ncnc(N[C@H]3CC[C@@H](N4CCN(C(=O)CCC(=O)N5CCC(CN6CCN(c7ccc8c(c7)C(=O)N(C7CCC(=O)NC7=O)C8=O)CC6)CC5)CC4)CC3)c12 (stereo partly specified) |
|  |  | > 1000 | 2 | 22 | 55 | 85 |  |  |  |  | CC(C)c1ccn2ncnc(N[C@H]3CC[C@@H](N4CCN(C(=O)CCC(=O)NCCOCCOCCOCCOCCNc5cccc6c5C(=O)N(C5CCC(=O)NC5=O)C6=O)CC4)CC3)c12 (stereo partly specified) |
| 0 | 0 | > 1000 | 3 | 19 |  |  |  |  |  |  | Cc1ncsc1-c1ccc(CNC(=O)[C@@H]2C[C@@H](O)CN2C(=O)[C@@H](NC(=O)COCCOCCOCCOCCNC(=O)CCC(=O)N2CCN([C@H]3CC[C@@H](Nc4ncnn5ccc(C(C)C)c45)CC3)CC2)C(C)(C)C)cc1 |
|  |  |  |  | 31 |  |  |  |  |  |  | CC(=O)N1CCN([C@H]2CC[C@H](Nc3ncnn4ccc(C(C)C)c34)CC2)CC1 |
